In patent publication US20140294856A1, “COMBINATION TREATMENT COMPRISING A HDAC6 INHIBITOR AND AN AKT INHIBITOR” (priority 2011, published 2014):
In brackets after ≈: the same amount, converted by molar mass. Where two headings read alike, the source gives them in different places.

Tests used:
[1] = tested on: γH2AX; test: γH2AX foci formation (DNA damage marker); details: in vitro and in vivo
[2] = tested on: HCT116 cells; test: Growth inhibition (GI50); assay type: cell-based, human
Description: Different treatment scheduling are shown. […] The results are mean of n=6.

[3] = tested on: ABC transporters; test: Expression of ABC transporters (protein and mRNA) in tumours; assay type: in vivo, mice; details: 14 days of treatment
[4] = tested on: HCT116 human colon cancer xenograft
[5] = tested on: HCT116 xenograft; test: Biomarkers screening in HCT116 xenograft tumours; assay type: in vivo, mice
Protocol: FIG. 5. Anti-tumour activity of HDAC-C1A in A2780 (A & B) and HCT116 (C & D) xenograft models (Tumours volumes relative to tumour volume at day 1 (A & C) and corresponding body weight (relative to body weight at day 1) (B & D)). E. Biomarkers screening at early time points following a single injection of HDAC-C1A in HCT116 xenograft at 40 mg/kg compared to a continuous 14 days treatment at the indicated dose. Tumours were excised 6 hours following the last injection.
The drug was stable after oral, parenteral and intravenous administration for 24 h (last time point examined). […] The Cma and AUC0-24h following i.p. injection (20 mg/kg) were 3.2 μg/mL and 11.2 μg/mL*h, respectively. […] The acid instability of HDAC-C1A could therefore be improved by enteric coating as a means to avoid breakdown in the stomach. […] HDAC-C1A was also tested in HCT116 human colon cancer xenograft model using a refined dose and scheduling. […] This dose was non-toxic (no reduction in body weight) (FIG. 5.D). The acetylated form of α-tubulin (biomarker of response to HDAC6 inhibition) could be observed after 14 days of treatment and could be detected as early as 6 hours after the 1st injection (FIG. 5.E.). The acetylated form of Histone 3 (biomarker of response of class I histones) could be observed as early as 2 hours after the 1st injection and remain after 14 days of treatment (FIG. 5.E).

[6] = target: MRP1 (Homo sapiens, UniProt P33527); test: Impact of MRP1 on cytotoxicity, MK-571 pre-treatment in A549 cells
Chain of MRP1 (P33527 whole entry): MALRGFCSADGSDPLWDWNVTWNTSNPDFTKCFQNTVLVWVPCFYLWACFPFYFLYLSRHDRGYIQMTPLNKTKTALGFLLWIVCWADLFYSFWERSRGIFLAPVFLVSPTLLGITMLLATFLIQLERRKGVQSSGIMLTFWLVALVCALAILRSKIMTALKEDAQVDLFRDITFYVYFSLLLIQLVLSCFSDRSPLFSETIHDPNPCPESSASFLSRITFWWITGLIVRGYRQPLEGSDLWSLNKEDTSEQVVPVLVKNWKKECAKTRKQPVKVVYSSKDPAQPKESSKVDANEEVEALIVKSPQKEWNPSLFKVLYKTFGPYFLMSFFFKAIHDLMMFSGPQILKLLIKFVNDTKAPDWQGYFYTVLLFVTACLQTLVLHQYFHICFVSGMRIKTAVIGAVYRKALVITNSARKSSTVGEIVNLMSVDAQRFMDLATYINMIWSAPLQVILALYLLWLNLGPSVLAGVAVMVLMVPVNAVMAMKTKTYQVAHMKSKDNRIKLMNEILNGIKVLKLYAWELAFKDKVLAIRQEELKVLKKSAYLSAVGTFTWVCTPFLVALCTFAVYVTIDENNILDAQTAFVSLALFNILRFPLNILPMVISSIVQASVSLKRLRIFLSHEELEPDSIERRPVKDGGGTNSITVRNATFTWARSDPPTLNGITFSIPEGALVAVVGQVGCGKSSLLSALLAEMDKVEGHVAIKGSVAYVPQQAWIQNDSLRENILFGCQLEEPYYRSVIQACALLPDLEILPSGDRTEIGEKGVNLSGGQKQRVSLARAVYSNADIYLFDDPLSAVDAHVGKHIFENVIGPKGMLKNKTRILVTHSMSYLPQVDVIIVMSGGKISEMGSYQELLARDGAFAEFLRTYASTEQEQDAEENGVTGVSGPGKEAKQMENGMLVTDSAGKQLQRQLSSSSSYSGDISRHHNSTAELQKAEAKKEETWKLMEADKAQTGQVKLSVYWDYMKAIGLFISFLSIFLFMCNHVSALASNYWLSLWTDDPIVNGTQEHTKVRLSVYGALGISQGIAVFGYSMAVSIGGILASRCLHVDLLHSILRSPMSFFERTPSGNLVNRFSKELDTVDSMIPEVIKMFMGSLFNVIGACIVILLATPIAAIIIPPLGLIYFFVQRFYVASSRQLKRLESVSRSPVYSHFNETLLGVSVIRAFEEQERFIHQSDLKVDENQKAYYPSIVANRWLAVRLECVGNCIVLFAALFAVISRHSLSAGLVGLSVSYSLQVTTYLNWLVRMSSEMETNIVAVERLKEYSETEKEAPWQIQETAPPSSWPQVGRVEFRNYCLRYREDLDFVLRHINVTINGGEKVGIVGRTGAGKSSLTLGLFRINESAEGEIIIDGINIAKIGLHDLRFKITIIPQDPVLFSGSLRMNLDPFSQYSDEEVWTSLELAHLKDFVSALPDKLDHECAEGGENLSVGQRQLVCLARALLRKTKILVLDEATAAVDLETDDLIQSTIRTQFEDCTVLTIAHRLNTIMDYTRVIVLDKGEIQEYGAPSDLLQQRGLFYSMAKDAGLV
Protocol: The impact of ABC transporters on the cytotoxicity of HDAC-C1A was assessed using cell lines with differential expression of the ABC transporters and by using inhibitors.

[7] = tested on: MCF7; test: Phospho-AKT levels by western blotting; assay type: cell-based; details: breast cancer cell line MCF7
[8] = tested on: CHO cells deficient in DNA repair; test: Growth inhibition in cell lines deficient in DNA repair machinery; assay type: cell-based
[9] = tested on: HCT116 cells; test: Acetylated PTEN and PTEN expression; assay type: cell-based, human
Protocol: FIG. 12. HDAC-C1A treatment is associated with an increase of phopsho-AKT that can be reversed by PI3K/AKT/mTOR inhibitors. […] Similarly, Phospho-Pras 40 seems to increase following treatment with HDAC-C1A. Densitometry data could reinforce this statement (ratio between the total form and the Phospho form of Pras40 that decreases at 24 hours). […] No difference could be seen in endometrial cancer cell line, […]. C. […] E. BEZ-235 can fully reverse the increase of Phospho-AKT mediated by HDAC-C1A in HCT-116 cells. BEZ-235 and HDAC-C1A were co-incubated at the indicated time and concentrations.
FIG. 17. A. Dose and time impact of Tubastatin A on acetylated form of tubulin and histones H3 and H4 and on phospho-AKT levels that could be reversed with BEZ-235 in HCT-116 cells. […] HCT116 were immunoprecipitation with PTEN and stained with HDAC1 or HDAC6, immunoprecipitation with HDAC6 and stained with PTEN. No HDAC1 could have been detected in contrast with HDAC6. There was no effect of the different inhibitors on the different protein levels.
PTEN protein expression was not altered. In vivo, on the gene array, the mRNA levels of PTEN were not altered in HCT116 xenograft model following treatment with HDAC-C1A after 1 and 14 days when compared with vehicle treated group (FIG. 7).
We have shown that HDAC-C1A is associated with increased acetylation of α-tubulin, acetyl HSP90 and acetyl PTEN with only a minor effect on the regulation of the genes (less than 0.7% of the genes have been de-regulated after 14 days of treatment in vivo). We believe that the acetylation of PTEN, via the inhibition of HDAC6, leads to an increase of P-AKT. […] No effect of BEZ235 could be seen on the acetylated status of α-tubulin and histones H3 and H4.

[10] = target: HDAC1 (Homo sapiens, UniProt Q13547); test: Enzyme inhibition activity, Fluor-de-Lys kit; assay type: biochemical
Chain of HDAC1 (Q13547 whole entry): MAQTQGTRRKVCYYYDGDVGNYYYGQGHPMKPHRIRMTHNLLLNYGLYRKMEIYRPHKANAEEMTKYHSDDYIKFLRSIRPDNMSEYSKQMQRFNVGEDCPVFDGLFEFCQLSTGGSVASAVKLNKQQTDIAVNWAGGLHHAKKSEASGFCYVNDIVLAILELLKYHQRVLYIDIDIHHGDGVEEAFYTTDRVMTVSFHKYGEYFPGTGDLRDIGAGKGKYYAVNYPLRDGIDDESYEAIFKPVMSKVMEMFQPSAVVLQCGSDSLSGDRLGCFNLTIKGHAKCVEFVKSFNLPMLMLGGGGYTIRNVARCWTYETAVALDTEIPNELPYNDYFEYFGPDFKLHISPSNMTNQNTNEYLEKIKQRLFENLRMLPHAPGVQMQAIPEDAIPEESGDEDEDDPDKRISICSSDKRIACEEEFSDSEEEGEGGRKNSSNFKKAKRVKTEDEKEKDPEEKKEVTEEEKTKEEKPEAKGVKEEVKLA

[11] = tested on: HDAC from HeLa cell extract; test: Irreversible HDAC inhibition, HeLa nuclear extracts; assay type: biochemical
Protocol: FIG. 1. HDAC-C1A irreversible activity. A. […] inhibitory activity of HDAC-C1A was tested using HeLa nuclear extracts and compared to the negative (reversible) control HDAC-C1B. B Growth inhibitory effect of the different compounds in HCT-116 cells at indicated time and compared to growth inhibitory after 72 hours of incubation.
HSP90 protein expression was not altered (FIG. 2).

[12] = tested on: KELLY; test: Growth inhibition, SRB assay, 72 hours; assay type: cell-based; details: KELLY neuroblastoma
[13] = tested on: HCT116 cells; test: Phospho-AKT levels by western blotting; assay type: cell-based, human; details: 10 μM
[14] = HDAC-C1A 20 mg/kg bid combined with API-2 1 mg/kg/d
[15] = HDAC-C1A combined with BEZ-235 20 mg/kg/day, given 8 hours apart
[16] = homologous recombination repair

Structure (SMILES): CC(/C=C/C(=O)NO)=C\c1ccc(NS(=O)(=O)c2ccc(N(CCCl)CCCl)cc2)cc1 [HDAC-C1A]
- γH2AX foci formation [1]: time and a dose dependent increase
- GI50 [2]: 3.7 µM
- expression of ABC transporters vs vehicle [3]: No difference
- TGD2x [4, 14]: 2.7 ± 1.3 days
- TGI compared with vehicle [4, 14]: 54%
- TGD2x ([4]; HDAC-C1A alone 20 mg/kg/day): 3.8 ± 1.3 days
- TGI ([4]; HDAC-C1A alone 20 mg/kg/day): 69%
- TGD2x [4, 15]: 8.2 ± 1.3 days
- TGI [4, 15]: 74%
- TGI ([4]; HDAC-C1A combined with BEZ-235, given 30 minutes apart): 115%
- TGD2x ([4]; i.p. 20 mg/kg b.i.d.): 5.7 ± 1.4 days
- TGI compared with vehicle ([4]; i.p. 20 mg/kg b.i.d.): 78%
- toxicity (body weight) ([4]; i.p. 20 mg/kg b.i.d.): non-toxic
- anti-apoptotic factor Bcl2 ([5]; after 48 hours): down-regulated
- earliest detection of acetylated Histone 3 after 1st injection ([5]; single injection 40 mg/kg): 2 h
- earliest detection of acetylated α-tubulin after 1st injection ([5]; single injection 40 mg/kg): 6 h
- substrate of MRP1 [6]: non-substrates
- P-AKT levels [7]: increased
- sensitivity (GI50 ratio) of cells deficient in XRCC3 vs proficient [8, 16]: as sensitive as the parental proficient cell lines
- sensitivity (GI50 ratio, fold) of cells deficient in XRCC2 vs proficient [8, 16]: as sensitive as the parental proficient cell lines
- sensitivity (GI50 ratio, fold) of cells deficient in XRCC5 vs proficient ([8]; non homologous end joining): as sensitive as the parental proficient cell lines
- sensitivity (GI50 ratio) of cells deficient in ERCC1 vs proficient ([8]; nucleotide excision repair): as sensitive as the parental proficient cell lines
- sensitivity of cells deficient in XPB vs proficient ([8]; nucleotide excision repair): as sensitive as the parental proficient cell lines
- PTEN protein expression [9]: not altered
- acetyl form of PTEN ([9]; 4 h and 24 h, 1 μM and 10 μM): dose and time dependent increase
- fold more specific for HDAC6 compared with HDAC1 [10]: approximately 17 fold
- mode of HDAC inhibition [11]: irreversibly inhibited
- GI50 [12]: 0.14 µg/mL (≈ 0.281 µM)
- fold increase of P-AKT ([13]; 4 h): 1.5 fold
- fold increase of P-AKT ([13]; 24 h): 2 fold
